Measured values published in patent US9079866B2, “Flap modulators” (JANSSEN PHARMACEUTICA NV, priority 2013, dated 2015).
pIC50, pKi: −log10 of the molar value. Structures can show the parent of a compound that is named as a salt. Where two headings read alike, the source gives them in different places.

Key:
human FLAP = human FLAP (Homo sapiens (Human), UniProt P20292); assay: FLAP binding assay (HTRF format)
In short: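 Binding of compounds to FLAP read out as HTRF ratio. Values are the mean of two assay plates, each sample run in duplicate per plate.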

[1] = system: leukotriene pathway in human whole blood (LTB4 levels); assay: Human whole blood assay (A23187-stimulated LTB4); type: cell-based; conditions: Homo sapiens, human whole blood diluted 1:1, A23187-stimulated; read-out: LTB4 IC50 1:1
In short: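 Heparinised human whole blood, diluted 1:1 in RPMI, was pre-incubated with test compounds for 15 min at 37° Celsius, then stimulated with A23187 (7 μg/mL) for 30 min at 37° Celsius. Plasma LTB4 was measured by immunoassay kit; IC50 from 4-parameter fit; single replicate, at least one healthy donor.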

human FLAP, sequence (P20292 whole entry): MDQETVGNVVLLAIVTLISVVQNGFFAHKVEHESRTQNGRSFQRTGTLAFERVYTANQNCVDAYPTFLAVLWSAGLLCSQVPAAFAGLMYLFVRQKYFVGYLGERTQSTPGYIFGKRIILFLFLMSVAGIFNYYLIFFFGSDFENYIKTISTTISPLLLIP

Structure (SMILES) | pKi (human FLAP; wild type FLAP, HTRF format) | pIC50 [1] | pKi (human FLAP; read-out: FLAP Binding wild type HTRF Ki)
CC(C)(C)NS(=O)(=O)c1ccccc1-c1ccc(-c2cnc(N)c(Cl)n2)c(F)c1 [Example 441, 4′-(5-Amino-6-chloropyrazin-2-yl)-N-tert-butyl-3′-fluorobiphenyl-2-sulfonamide] | 9.00 | 8.22 | –
CC(C)(C)NS(=O)(=O)c1ccccc1-c1ccc(-c2cnc(N)c(Br)n2)c(F)c1 [Example 442, 4′-(5-Amino-6-bromopyrazin-2-yl)-N-tert-butyl-3′-fluorobiphenyl-2-sulfonamide] | 9.00 | 8.05 | –
N#Cc1nc(N)ccc1-c1ccc(-c2ccccc2S(=O)(=O)C2CC2)cc1F [Example 443, 6-Amino-3-(2′-(cyclopropylsulfonyl)-3-fluoro-[1,1′-biphenyl]-4-yl)picolinonitrile] | 6.46 | 5.48 | –
CC(C)(C)NS(=O)(=O)c1ccccc1-c1ccc(-c2ccn3cnnc3c2)c(F)c1 [Example 444, N-tert-Butyl-3′-fluoro-4′-[1,2,4]triazolo[4,3-a]pyridin-7-ylbiphenyl-2-sulfonamide] | 6.74 | < 5.00 | –
Cc1nc(-c2ccc(-c3ccccc3S(=O)(=O)NC(C)(C)C)cc2F)cnc1N [Example 445, 4′-(5-Amino-6-methylpyrazin-2-yl)-N-tert-butyl-3′-fluorobiphenyl-2-sulfonamide] | 9.00 | 8.10 | –
CC(C)(C)NS(=O)(=O)c1ccccc1-c1ccc(-c2cnc3[nH]cnc3n2)c(F)c1 [Example 447, N-tert-Butyl-3′-fluoro-4′-(1H-imidazo[4,5-b]pyrazin-5-yl)biphenyl-2-sulfonamide] | 8.52 | 6.84 | –
CC(C)(C)NS(=O)(=O)c1ccccc1-c1ccc(-c2cnc(N)c(N)c2)c(F)c1 [Example 448, N-tert-Butyl-4′-(5,6-diaminopyridin-3-yl)-3′-fluorobiphenyl-2-sulfonamide] | 8.00 | 6.95 | –
CNS(=O)(=O)c1ccccc1-c1ccc(-c2cnc(N)c(C)n2)c(F)c1 [Example 449, 4′-(5-Amino-6-methylpyrazin-2-yl)-3′-fluoro-N-methylbiphenyl-2-sulfonamide] | 7.66 | 7.10 | –
CC(C)(C)NS(=O)(=O)c1ccccc1-c1ccc(-c2cnc(N)c(C#N)c2)c(F)c1 [Example 450, 4′-(6-Amino-5-cyanopyridin-3-yl)-N-tert-butyl-3′-fluorobiphenyl-2-sulfonamide trifluoroacetic acid salt] | 7.13 | 6.47 | –
CC(C)(C)NS(=O)(=O)c1ccccc1-c1ccc(-c2cnc(N)c(Cl)c2)c(F)c1 [Example 451, 4′-(6-Amino-5-chloropyridin-3-yl)-N-tert-butyl-3′-fluorobiphenyl-2-sulfonamide trifluoroacetic acid salt] | 8.70 | 7.42 | –
CC(C)(C)NS(=O)(=O)c1ccccc1-c1ccc(-c2cnc(N)c(C(F)(F)F)c2)c(F)c1 [Example 452, 4′-[6-Amino-5-(trifluoromethyl)pyridin-3-yl]-N-tert-butyl-3′-fluorobiphenyl-2-sulfonamide trifluoroacetic acid salt] | – | 5.71 | 7.09
CC(C)(C)NS(=O)(=O)c1ccccc1-c1ccc(-c2cnc(N)nc2C(F)(F)F)c(F)c1 [Example 453, 4′-[2-Amino-4-(trifluoromethyl)pyrimidin-5-yl]-N-tert-butyl-3′-fluorobiphenyl-2-sulfonamide trifluoroacetic acid salt] | < 5.00 | < 5.00 | –
Cc1nc(N)ncc1-c1ccc(-c2ccccc2S(=O)(=O)NC(C)(C)C)cc1F [Example 454, 4-′-(2-Amino-4-methylpyrimidin-5-yl)-N-tert-butyl-3′-fluorobiphenyl-2-sulfonamide trifluoroacetic acid salt] | 7.92 | 6.46 | –
CC(C)(C)NS(=O)(=O)c1ccccc1-c1ccc(-c2cnc3[nH]cc(CO)c3c2)c(F)c1 [Example 455, N-tert-Butyl-3′-fluoro-4′-[3-(hydroxymethyl)-1H-pyrrolo[2,3-b]pyridin-5-yl]biphenyl-2-sulfonamide] | 9.00 | 7.03 | –
Nc1cc(-c2ccc(-c3ccccc3S(=O)(=O)NC3(CO)CCCC3)cc2F)cc2cc[nH]c12 [Example 456, 4′-(7-Amino-1H-indol-5-yl)-3′-fluoro-N-[1-(hydroxymethyl)cyclopentyl]biphenyl-2-sulfonamide] | 8.52 | 6.94 | –

The next lines start with results.

pKi (human FLAP; wild type FLAP, HTRF format) | pIC50 [1] | Structure (SMILES) | pKi (human FLAP; read-out: FLAP Binding wild type HTRF Ki)
8.52 | 6.85 | CNS(=O)(=O)c1ccccc1-c1ccc(-c2cnc3[nH]cc(CO)c3c2)c(F)c1 [Example 457, 3′-Fluoro-4′-[3-(hydroxymethyl)-1H-pyrrolo[2,3-b]pyridin-5-yl]-N-methylbiphenyl-2-sulfonamide] | –
7.39 | 6.68 | CS(=O)(=O)c1ccccc1-c1ccc(-c2cnc(N)cn2)c(F)c1F [Example 461, 5-[2,3-Difluoro-2′-(methylsulfonyl)biphenyl-4-yl]pyrazin-2-amine] | –
8.70 | 7.21 | CC(C)(C)NS(=O)(=O)c1ccccc1-c1ccc(-c2cnc(N)cn2)c(F)c1F [Example 462, 4′-(5-Aminopyrazin-2-yl)-N-tert-butyl-2′,3′-difluorobiphenyl-2-sulfonamide] | –
6.73 | 6.02 | CNS(=O)(=O)c1ccccc1-c1ccc(-c2cnc(N)nc2)c(F)c1F [Example 465, 4′-(2-Aminopyrimidin-5-yl)-2′,3′-difluoro-N-methylbiphenyl-2-sulfonamide trifluoroacetic acid salt] | –
6.60 | 5.55 | Nc1cnc(-c2ccc(-c3ccc(OC(F)(F)F)cc3F)cc2F)cn1 [Example 467, 5-[2′,3-Difluoro-4′-(trifluoromethoxy)biphenyl-4-yl]pyrazin-2-amine] | –
6.60 | 5.63 | Nc1cnc(-c2ccc(-c3ccccc3Cl)cc2F)cn1 [Example 469, 5-(2′-Chloro-3-fluorobiphenyl-4-yl)pyrazin-2-amine] | –
6.60 | 5.47 | Nc1cnc(-c2ccc(-c3ccc(C(F)(F)F)cc3F)cc2F)cn1 [Example 471, 5-[2′,3-Difluoro-4′-(trifluoromethyl)biphenyl-4-yl]pyrazin-2-amine] | –
6.84 | 5.60 | Nc1cnc(-c2ccc(-c3ccccc3C(F)(F)F)cc2F)cn1 [Example 472, 5-[3-Fluoro-2′-(trifluoromethyl)biphenyl-4-yl]pyrazin-2-amine] | –
6.95 | 5.85 | COc1ccccc1-c1ccc(-c2cnc(N)cn2)c(F)c1 [Example 473, 5-(3-Fluoro-2′-methoxybiphenyl-4-yl)pyrazin-2-amine] | –
7.68 | 5.58 | CSc1ccccc1-c1ccc(-c2cnc(N)cn2)c(F)c1 [Example 474, 5-[3-Fluoro-2′-(methylsulfanyl)biphenyl-4-yl]pyrazin-2-amine] | –
7.49 | 6.05 | Nc1cnc(-c2ccc(-c3ccccc3O)cc2F)cn1 [Example 476, 4′-(5-Aminopyrazin-2-yl)-3′-fluorobiphenyl-2-ol] | –
7.80 | 6.13 | Nc1cnc(-c2ccc(-c3ccccc3S(=O)(=O)c3ccccc3)cc2F)cn1 [Example 477, 5-[3-Fluoro-2′-(phenylsulfonyl)biphenyl-4-yl]pyrazin-2-amine] | –
